This passage reports melting point results from a melting point compilation (Tetko et al.; mined from patent text by program, amines drawn as free bases though some values may be those of a salt).

Each structure is given as a SMILES string.

The compound `CCCCOc1ccc2c(O)c(C(=O)NCC(=O)O)ncc2c1` showed a melting point of 151 to 153 °C.
In the case of `COc1ccc2cc(C(=O)C(C)OS(=O)(=O)c3ccc(C)cc3)ccc2c1` (stereo unspecified), the melting point was 85 to 87 °C.
The compound `COC(=O)C(C)Oc1cc(C)ccc1COc1ccc([N+](=O)[O-])c(F)c1` (stereo unspecified) came in with a melting point of 92 to 94 °C.
As for `CCO[C@@H](Cc1ccc(OCCc2nc(-c3ccc(-c4ccccc4)cc3)oc2C)c2ccccc12)C(=O)O`, the melting point was in the range of 140 to 145 °C.
Compound `O=Cc1cc(-c2ccccc2)c(=O)n2c1-c1sccc1CC2` had a melting point of 213 to 215 °C.
Then `CC1CN(c2ccc(Nc3cc(Br)cn(C)c3=O)nc2)C1`, with 135 to 136 °C; and `O=C1C(=O)c2ccc(-c3ccccc3C(F)(F)F)cc2C2=C1SCC1(CCNCC1)O2`, with 125 to 127 °C; and `CC(NC1=Nc2ccccc2C(=O)N(C)C1)c1ccccc1` (stereo unspecified), with 150 to 151 °C.
Then `COC(=O)C1=C[C@@H](OC(C)C)[C@H](NC(C)=O)[C@@H](CC2CO2)C1` (stereo partly specified), with 130 to 131 °C; and `Cc1nc2c(s1)C(=O)C(C=O)CC2` (stereo unspecified), with 107 to 108 °C.
As to `CN=C(NC#N)NCCSCc1ccco1`, the melting point was 78 to 82 °C.
`C#CC1(O)CN2CCC1CC2` (stereo unspecified) came in with a melting point of 199 to 202 °C.
For the compound `COC(=O)C(NS(=O)(=O)c1ccc(-c2ccc(NC(=O)c3oc4cccc(CO[Si](C)(C)C(C)(C)C)c4c3C)cc2)cc1)C(C)C` (stereo unspecified), the melting point lay in the range of 204 to 206 °C.
Then `COc1ccc(NC(=O)c2ccc(Cl)c(Cl)c2)cc1NCc1cccc(F)c1`, with 197 to 199 °C.
Then `Cc1cc(C(=O)c2ccc(C(=O)c3cc(C)c(OCC4CO4)c(C)c3)cc2)cc(C)c1OCC1CO1` (stereo unspecified), with 164 to 170 °C; and `Cc1ccc(Oc2ccc(C#N)cc2)c(O)c1`, with 118 to 119 °C.
In the case of `Cc1c(Cl)c(C(=O)O)cc(Cl)c1C(=O)O`, the melting point was 169 to 171 °C.
Turning to `CCOC(=O)NOC(=O)CCCCC(=O)ONC(=O)OCC`, the melting point stood at 60 °C.
Consider `CCOC(=O)C(C)(C)NC(=O)c1cccc(C2=NC(C)(C)Cc3cc(OCC)c4c(c32)CC(C)(C)O4)c1`, for which the melting point is 155 to 156 °C.
Then `C=CCC1Cn2c(ncc(C(=O)O)c2=O)-c2cc(OC)ccc21` (stereo unspecified), with 128 to 130 °C; and `CCCCS(=O)(=O)N(CCN(CC)CC)c1ccc(C(Cl)=C(c2ccccc2)c2ccccc2)cc1`, with 65 to 70 °C.
Compound `CC(=O)Cc1ccc(O)cn1` yielded a melting point of 119 to 120 °C.
For the compound `CC12CCC3c4ccc(O)cc4CC(Sc4ccc(C=CC(=O)O)cc4)C3C1CCC2O` (stereo unspecified), the melting point lay in the range of 215 to 220 °C.
Then `O=C1CSc2ccc(CO)nc2N1`, with 120 to 135 °C; and `O=c1ccc(S(=O)(=O)n2ccnc2)n[nH]1`, with 55 to 60 °C; and `CCC1(CCCCN2CCN(c3ccc(F)cc3)CC2)C(=O)Nc2ccccc21` (stereo unspecified), with 118 to 119 °C.
Then `C[C@]1(O)c2ccccc2CC[C@H]1O` (relative stereo), with 75 °C; and `O=C1Nc2cccc(F)c2C12COc1cc3c(cc12)OCCO3` (stereo unspecified), with 282 to 285 °C; and `O=C1C=C(NC(=O)C(=O)c2cn(Cc3ccc(Cl)cc3)c3ccc(Cl)cc23)CO1`, with 251 to 253 °C.
Then `CS(=O)(=O)N1CCC(Nc2nc(Cl)nc(Nc3cccc(C(F)(F)F)c3)n2)CC1`, with 220 to 222 °C.
`CCOc1cc(-c2cc(C(F)(F)F)n3cnc(-c4ccncc4)c3n2)ccc1C(F)(F)F` yielded a melting point of 212 °C.
Then `O=C(NCc1ccc(Cl)cc1)c1n[nH]c2ccccc2c1=O`, with 269 to 271 °C; and `CCCCCS(=O)(=O)NC(=O)/C=C/c1cc(OC2CCOCC2)nn1Cc1ccc(Cl)cc1Cl`, with 154 to 157 °C.
Regarding `O=C(O)c1ccc(OCCCC2CCN(c3ccc(Cl)nn3)CC2)cc1`, the melting point came out at 209 °C.
Then `Cn1nc(O)cc1C(F)(F)C(F)(F)F`, with 119 to 124 °C; and `CCC12CCC3c4ccc(OC)cc4C(C)CC3C1CCC21OCCO1` (stereo unspecified), with 130 to 134 °C.
In the case of `CC1NC(=O)NN=C1c1ccc(O)cc1` (stereo unspecified), the melting point lay in the range of 256 to 259 °C.
`CCCCN(CCCC)c1ccc2c(c1)O/C(=C1/Oc3cc(N(CCCC)CCCC)ccc3C1=O)C2=O` registered a melting point of 216 °C.
On to `C[C@@H](n1cnn(-c2ccc(OCC(F)(F)C(F)F)cc2)c1=O)[C@@]1(c2ccc(F)cc2F)CO1`, for which the melting point fell in the range of 116 to 117 °C.
Take `O=C(O)C1CCC2CCCCC2N1` (stereo unspecified): the melting point was in the range of 173 to 176 °C.
Consider `CN1CCCCC1CCc1ccccc1NC(=O)c1ccc(O)cc1` (stereo unspecified), for which the melting point is 178 to 182 °C.
Turning to `Oc1ccc(C(O)CN2CCC(O)(c3cccc(F)c3)CC2)cc1` (stereo unspecified), the melting point amounted to 154 °C.
`O=C1c2cccc3cc4ccccc4c(c23)C(=O)N1CCO` gave a melting point of 211 °C.
Then `Oc1cc(=S)sc2cccc(C(F)(F)F)c12`, with 142 to 144 °C; and `CC(=O)Oc1ccc(/C=C/c2cccc(OC(C)=O)c2)cc1`, with 124 to 125 °C; and `CC(=S)NC[C@H]1CN(c2ccc3c(c2)OC[C@@H](C)N3)C(=O)O1`, with 74 to 77 °C.
With `CCCc1nc(C#N)c(C#N)nc1Oc1ccccc1`, the melting point fell in the range of 130 to 132 °C.
For the compound `CCCOc1c(-c2ccccc2)n[nH]c1-c1ccccc1`, the melting point came out at 132 °C.
As to `O=C(C(=O)c1ccc(F)cc1)c1ccncc1`, the melting point is 84 to 86 °C.
Then `CCS(=O)(=O)c1cc2c(cc1OC)CCn1c3c(c(-c4cncs4)c1-2)CCCCN(C(C)(C)C)C3=O`, with 258 to 260 °C; and `CCOC(=O)c1c(C)cc2nc(CO)n(-c3ccc4c(c3)OCO4)c(=O)c2c1C`, with 159 to 161 °C.
In the case of `O=S(=O)(c1ccccc1)c1cc2cc(Cl)ccc2[nH]1`, the melting point is 137 to 138 °C.
In turn, `COC(=O)CCc1ccc(N2C(=O)CN(c3ccc(C(=N)NC(=O)OC)cc3)C2=O)cc1` displayed a melting point of 250 °C.
Then `Cc1nc2ccc3c(c2s1)C(=CC#N)CC3`, with 194 to 195 °C; and `Cc1cccc(C(C)(C)CC(O)(C(=O)Nc2ccc3c(c2)COC3=O)C(F)(F)F)c1` (stereo unspecified), with 152 to 153 °C; and `O=C(O)C(O)c1ccc(-n2cccc2)cc1` (stereo unspecified), with 168 °C.
Then `COc1c(C#N)c(C#N)c(OC)c2ccccc12`, with 190 °C.
Then `COc1cc(OCc2ccccc2)cc(Cl)c1Cl`, with 79 to 81 °C; and `OC(CCN1CCN(c2cccc(C(F)(F)F)c2)CC1)COc1ccccc1` (stereo unspecified), with 83 to 84 °C.
For `CCc1nnc2ccc(-c3ccc(C(F)(F)F)cc3)nn12`, the melting point lay within 194 to 196 °C.
With `CC1(C)CNC(=O)c2cc3nc(-c4ccncc4)[nH]c3cc21`, the melting point is 231 to 234 °C.
On to `COCCc1nc2c(N)nc3c(c2n1CCCNC(=O)c1ccccc1)CCCC3`, for which the melting point lay within 168 to 170 °C.
Consider `O=[N+]([O-])c1cccc(-c2ccc3[nH]c(=S)n(Cc4ccccc4)c3c2)c1`, for which the melting point was in the range of 244 to 245 °C.
Then `O=C(C(Cl)Cl)N1CCN(c2ccc([N+](=O)[O-])cc2)CC1`, with 155 °C; and `CCc1coc(Cc2ccc(NC(=O)/C=C/c3cnn(C)c3-c3ccc(F)cc3)cc2)n1`, with 174 to 175 °C.
In the case of `O=C(NCCn1cc(C(=O)OCc2ccccc2)ccc1=O)c1cccnc1`, the melting point was 154 to 155 °C.
Then `CSc1nnc2n1C=Cc1ccccc1C2c1ccccc1` (stereo unspecified), with 169 to 170 °C.
Then `CON=CNC(=O)c1ccc(Br)cc1C`, with 119 to 122 °C.
Compound `Cc1cc(Oc2ncc(C(F)(F)F)cc2Cl)nn1C(=O)Nc1cccc([N+](=O)[O-])c1` had a melting point of 172 to 174 °C.
The compound `CC1(C)NC(=O)c2ccc(OCCBr)cc2O1` came in with a melting point of 156 to 158 °C.
`CCOCc1nc2c(N)nc3cc(OCc4cscn4)ccc3c2n1CC(C)(C)O`: the melting point lay within 190 to 191 °C.
Turning to `COc1ccc(C(=O)CN2CCc3cc(OCc4ccccc4)c(OC)cc3C2)cc1OC`, the melting point is 126 to 127 °C.
Then `CC(=O)NC1C(NC(=NC(=O)OC(C)(C)C)NC(=O)OC(C)(C)C)C=C(C(=O)OCCCO)OC1C(O)C1COC(C)(C)O1` (stereo unspecified), with 86 to 88 °C.
With `Cc1ccccc1CSc1c(O)cc(-c2ccccc2)oc1=O`, the melting point lay within 176 to 178 °C.
As for `COC(=O)COc1cccc2c(CNS(=O)(=O)CCCCCc3ccccc3)coc12`, the melting point was in the range of 84.5 to 85.5 °C.
`NS(=O)(=O)c1cc2[nH]c(S)nc2cc1Cl` yielded a melting point of 341 to 343 °C.
Then `CNC(=O)[C@@H]1C[C@H](SCc2ccc(OC)cc2)CN1CCO`, with 88 to 89.5 °C.
Then `Clc1ccc(CSCc2ccc(Cl)cc2)cc1`, with 42 to 44 °C; and `C[C@@H]1CN(Cc2ccc(F)cc2)CCN1C(=O)/C=C/c1ccc(Cl)cc1NC(=O)N1CCNC1=O`, with 275 to 277 °C.
Regarding `Cc1cc(=O)[nH]c2ccc(OCCCN3CCN(Cc4ccc(F)cc4)CC3)cc12`, the melting point lay in the range of 178 to 180 °C.
Then `Cc1c(-c2ccccc2)[nH]c(=O)n1C1CCN(Cc2cccc(C(F)(F)F)c2)CC1`, with 243 °C; and `OCc1ccc(OCc2ccc3ccccc3n2)nc1`, with 124 to 125 °C; and `CC1(C)CON(Cc2ccc(NC(=O)C3CC3)cc2Cl)C1=O`, with 191 to 193 °C.
The compound `CCC(=O)N(CCCc1ccccc1)C1CCc2c(cccc2NC(C)=O)C1` (stereo unspecified) returned a melting point of 148 to 150 °C.
For `Brc1c(NC2=NCCN2)ccc2c1ncn2Cc1ccccc1`, the melting point fell in the range of 197 to 198 °C.
As to `CSc1sc(-c2ccncc2)c2c1C(=O)CCC2`, the melting point lay within 115 to 116 °C.
In turn, `O=Cc1[nH]cc2c1OCCO2` returned a melting point of 147 °C.
`CC(=O)NC(=CC(C)C)c1ccccc1N1CCCCC1` had a melting point of 140 to 143 °C.
Then `CC1CC(=O)C=C2CCC3C4CCC(=O)C4(C)CCC3C21C` (stereo unspecified), with 154 °C.
As to `CCOC(=O)C(C)(C)c1ccc(NC(C)=O)cc1`, the melting point lay within 76 to 76.5 °C.
Regarding `COC(=O)c1cccc(OC(=O)C(=O)Oc2cccc(C(=O)OC)c2)c1`, the melting point was in the range of 194 to 195 °C.
